How the values were obtained:
Candida albicans = assay: Agar dilution test, minimum inhibitory concentration; assay type: cell-based; settings: for MINIMUM INHIBITORY CONCENTRATION: Trypticase Soy Agar II plates
Protocol: (§1) Standard agar dilution tests in order to establish the minimum inhibitory concentration (% v/v) for C6 acyl lactylate, C8 acyl lactylate and C12 acyl lactylate were performed both in the presence and the absence of a lipid on the following micro-organisms: • 1. Propionibacterium acnes • 2. Staphylococcus aureus • 3. Escherichia coli • 4. Candida albicans
(§2) Control experiments were performed employing benzoyl peroxide and erthyromycin.
(§3) The present tests were performed using Trypticase Soy Agar II incorporation plates with and without 10% intralipid, supplied by Kabi Pharmacia Inc. In each case the lactylate being tested was used at a starting concentration of 10,000 ug/ml.

Propionibacterium acnes = assay: as above; assay type: cell-based; settings: Trypticase Soy Agar II plates
Protocol: as §1, §2, §3

Escherichia coli = assay: as above; assay type: cell-based; settings: for MINIMUM INHIBITORY CONCENTRATION: Trypticase Soy Agar II plates; for inhibitory against gram-negative bacteria: text summary of Table II, lipid condition not stated
Protocol: as §1, §2, §3

Staphylococcus aureus = assay: as above; assay type: cell-based; settings: for MINIMUM INHIBITORY CONCENTRATION: Trypticase Soy Agar II plates
Protocol: as §1, §2, §3

rate of hair loss = assay: Reduction of the rate of hair loss, panel of human volunteers (brushing and hair count); assay type: in vivo; settings: human panellists, about 3 ml applied to the scalp daily at night, compared with placebo composition B; Student t-test
Protocol: The effect of selected acyl lactylates, as herein defined, on reducing the rate of hair loss was assessed using a panel of human volunteers.
Each panellist was requested to brush his or her hair immediately on getting out of bed in the morning before other grooming took place. The hair brushing consisted of ten vigorous strokes over the entire head from front to back, ten strokes from back to front and then ten strokes from each side to the opposite side. Brushing was carried out over a towel or other light cloth to collect any hairs that fell. In addition, all the hairs on the brush were removed with forceps. The total number of hair collected each day was counted. Panellists were requested to continue with their routine hair shampooing and grooming techniques as usual, the only change to this routine being the application of products in accordance with the invention or corresponding control or placebo products.
During the first month, each panellist carried out only the standard brushing, collecting and counting of hairs lost to provide a basis for comparison later. For the second and third months, the scalp was treated by adding the test or placebo compositions in addition to the standard brushing technique as previously described. […]
The results were analysed by the standard Student t-test.

[1] = text summary of Table II, lipid condition not stated

| Compound | MINIMUM INHIBITORY CONCENTRATION (Candida albicans; Lipid (10% intralipid)) | MINIMUM INHIBITORY CONCENTRATION (Candida albicans; No Lipid) | MINIMUM INHIBITORY CONCENTRATION (Propionibacterium acnes; Lipid (10% intralipid)) | MINIMUM INHIBITORY CONCENTRATION (Propionibacterium acnes; No Lipid) | MINIMUM INHIBITORY CONCENTRATION (Escherichia coli; Lipid (10% intralipid)) | MINIMUM INHIBITORY CONCENTRATION (Escherichia coli; No Lipid) | MINIMUM INHIBITORY CONCENTRATION (Staphylococcus aureus; Lipid (10% intralipid)) | MINIMUM INHIBITORY CONCENTRATION (Staphylococcus aureus; No Lipid) | inhibitory against gram-negative bacteria (Escherichia coli) | reduction in the rate of loss of hair (rate of hair loss) | inhibitory effect against yeast (Candida albicans; [1]) | inhibitory to gram-positive bacteria (Staphylococcus aureus; [1]) |
| --- | --- | --- | --- | --- | --- | --- | --- | --- | --- | --- | --- | --- |
| O=C(OOC(=O)c1ccccc1)c1ccccc1 [Benzoyl Peroxide, benzoyl peroxide, reference compound] | 0.12 % V/V | 0.25 % V/V | 0.06 % V/V | 0.25 % V/V | 0.12 % V/V | 0.25 % V/V | 0.12 % V/V | 0.25 % V/V | – | – | – | – |
| CC[C@H]1OC(=O)[C@H](C)[C@@H](O[C@H]2C[C@@](C)(OC)[C@@H](O)[C@H](C)O2)[C@H](C)[C@@H](O[C@@H]2O[C@H](C)C[C@H](N(C)C)[C@H]2O)[C@](C)(O)C[C@@H](C)C(=O)[C@H](C)[C@@H](O)[C@]1(C)O [Erthyromycin, erthyromycin, reference compound] | 0.01 % V/V | 0.01 % V/V | <1.9 x 10^-5 % V/V | <1.9 x 10^-5 % V/V | 0.01 % V/V | 0.01 % V/V | 3.1 x 10^-4 % V/V | 3.1 x 10^-4 % V/V | – | – | – | – |
| C6 acyl lactylate [C6 Lactylate] | " " | " " | 0.5 % V/V | pH Effect | " " | " " | pH Effect | " " | – | – | – | – |
| C8 acyl lactylate [C8 Lactylate] | 1.0 % V/V | 1.0 % V/V | 0.5 % V/V | 0.25 % V/V | 1.0 % V/V | 1.0 % V/V | 0.5 % V/V | 0.5 % V/V | 1 % v/v | – | – | – |
| C12 acyl lactylate [C12 Lactylate] | >1.0 % V/V | >1.0 % V/V | 0.25 % V/V | 0.00039 % V/V | >1.0 % V/V | >1.0 % V/V | 0.5 % V/V | 0.06 % V/V | > 1 % v/v | significantly reduced | > 1 % v/v | 0.0625 % v/v |

Reference: patent EP0573253B1, “Topical anti-bacterial composition” (UNILEVER PLC, priority 1992, dated 1993)
